Source: patent US20140350029A1 (DAINIPPON SUMITOMO PHARMA CO., LTD., priority 2011, published 2014)

Key:
[1] = molecular target: T1, Norepinephrine α2C receptor (Homo sapiens, UniProt P18825); assay: In vitro receptor binding, norepinephrine α2C
T1 sequence (P18825 1-462): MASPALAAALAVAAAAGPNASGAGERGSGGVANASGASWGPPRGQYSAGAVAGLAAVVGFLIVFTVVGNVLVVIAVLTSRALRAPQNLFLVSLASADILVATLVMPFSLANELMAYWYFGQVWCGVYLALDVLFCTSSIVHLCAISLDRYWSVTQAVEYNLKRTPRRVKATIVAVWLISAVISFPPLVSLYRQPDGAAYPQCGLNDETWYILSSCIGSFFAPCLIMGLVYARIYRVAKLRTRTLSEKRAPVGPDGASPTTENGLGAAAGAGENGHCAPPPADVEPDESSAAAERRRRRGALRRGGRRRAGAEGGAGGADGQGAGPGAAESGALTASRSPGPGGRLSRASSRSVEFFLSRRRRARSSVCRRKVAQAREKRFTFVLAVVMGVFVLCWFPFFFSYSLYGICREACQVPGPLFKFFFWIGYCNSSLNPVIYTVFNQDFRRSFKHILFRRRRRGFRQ

[2] = system: patients with bipolar I depression; assay: Lurasidone monotherapy for bipolar I depression, 6-week study, efficacy; type: in vivo, human; details: for MADRS effect size vs PBO / MADRS score reduction (change from baseline, MMRM) / reduction in CGI-BP-S depression scores (MMRM): week 6
Experimental: Changes from DB baseline (DB-BL) to week 6 in MADRS and CGI-bipolar severity (CGI-BP-S) depression scores, respectively, were analyzed using mixed model for repeated measures (MMRM). Additional secondary outcome measures, e.g., Sheehan Disability Scale (SDS), were analyzed using analysis of covariance, last observation carried forward (ANCOVA-LOCF), or logistic regression.

[3] = molecular target: T2, noradrenaline α2C receptor (Homo sapiens, UniProt P18825); details: background statement; cited from earlier work
T2 sequence (P18825 1-462): T1 sequence (P18825 1-462)

histamine H1 receptor = histamine H1 receptor (Homo sapiens, UniProt P35367); details: background statement; cited from earlier work
muscarinic M1 receptor = molecular target: T3, muscarinic M1 receptor (Homo sapiens, UniProt P11229); details: background statement; cited from earlier work
T3 sequence (P11229 1-460): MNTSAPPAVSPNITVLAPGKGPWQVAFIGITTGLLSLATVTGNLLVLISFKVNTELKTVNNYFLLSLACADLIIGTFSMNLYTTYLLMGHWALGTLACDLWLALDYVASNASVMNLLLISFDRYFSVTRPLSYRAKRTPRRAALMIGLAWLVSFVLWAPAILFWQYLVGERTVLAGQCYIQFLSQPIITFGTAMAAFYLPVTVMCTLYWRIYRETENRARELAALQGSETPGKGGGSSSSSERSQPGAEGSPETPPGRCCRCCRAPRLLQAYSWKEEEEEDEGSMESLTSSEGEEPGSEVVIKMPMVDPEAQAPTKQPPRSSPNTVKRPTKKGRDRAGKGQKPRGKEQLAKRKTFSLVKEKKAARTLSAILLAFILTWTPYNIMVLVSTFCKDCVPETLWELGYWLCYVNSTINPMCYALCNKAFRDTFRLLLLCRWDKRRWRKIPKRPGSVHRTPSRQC

histamine H1 receptor, sequence (P35367 whole entry): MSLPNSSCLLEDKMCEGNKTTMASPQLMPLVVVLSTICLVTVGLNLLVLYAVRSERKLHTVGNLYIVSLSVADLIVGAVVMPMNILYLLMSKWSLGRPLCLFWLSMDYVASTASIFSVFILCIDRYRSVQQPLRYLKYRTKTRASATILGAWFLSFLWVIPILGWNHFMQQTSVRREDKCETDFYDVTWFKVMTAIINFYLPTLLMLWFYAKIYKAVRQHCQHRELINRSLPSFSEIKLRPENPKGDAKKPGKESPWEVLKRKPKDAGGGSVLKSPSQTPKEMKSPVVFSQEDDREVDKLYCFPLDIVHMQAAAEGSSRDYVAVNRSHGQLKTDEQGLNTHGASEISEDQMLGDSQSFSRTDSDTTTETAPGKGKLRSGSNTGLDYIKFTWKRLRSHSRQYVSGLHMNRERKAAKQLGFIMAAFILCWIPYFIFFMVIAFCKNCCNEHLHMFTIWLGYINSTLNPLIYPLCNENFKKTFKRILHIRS

O=C1[C@@H]2[C@H]3CC[C@H](C3)[C@@H]2C(=O)N1C[C@@H]1CCCC[C@H]1CN1CCN(c2nsc3ccccc23)CC1 [Lurasidone]
Ki ([1]; cloned cells expressing human receptors, read-out: Binding Affinities (Ki; nM) Norepinephrine α2C): 10.8 nM | affinity for α2C adrenoreceptor (in words) ([1]; summary of Table 2): moderate affinity | Sheehan Disability Scale (SDS) vs PBO ([2]; both LUR20-60 and LUR80-120 groups, LOCF): significant improvement over PBO | Responder rates (reduction in MADRS total score ≧50%) ([2]; lurasidone 20 to 60 mg/day): 53% | MADRS effect size vs PBO ([2]; lurasidone 20 to 60 mg/day): 0.51 | MADRS score reduction (change from baseline, MMRM) ([2]; lurasidone 20 to 60 mg/day): −15.4 | reduction in CGI-BP-S depression scores (MMRM) ([2]; lurasidone 20 to 60 mg/day): −1.8 | Responder rates (reduction in MADRS total score ≧50%) ([2]; lurasidone 80 to 120 mg/day): 51% | MADRS effect size vs PBO ([2]; lurasidone 80 to 120 mg/day): 0.51 | MADRS score reduction (change from baseline, MMRM) ([2]; lurasidone 80 to 120 mg/day): −15.4 | reduction in CGI-BP-S depression scores (MMRM) ([2]; lurasidone 80 to 120 mg/day): −1.7 | depressive symptoms compared to placebo ([2]; monotherapy, flexibly dosed at 20 to 60 mg/day or 80 to 120 mg/day): significantly reduced depressive symptoms | reported affinity for noradrenaline α2C receptor [3]: high affinity | reported affinity for histamine H1 receptor (histamine H1 receptor): minimal to no affinity | reported affinity for muscarinic M1 receptor (muscarinic M1 receptor): minimal to no affinity
